Results published in patent US10953027B2, “Active agents and methods of their use for the treatment of metabolic disorders and nonalcoholic fatty liver disease” (Flagship Pioneering Innovations V, Inc., priority 2018, dated 2021).

Assays:
naïve CD4+ T cells = experiment: Human regulatory T cell differentiation assay; format: cell-based; conditions: 6 days
Procedure: Peripheral blood mononuclear cells (PBMCs) from whole blood donated by health volunteers were separated by Ficoll-Paque gradient centrifugation and naïve CD4^+ T cells were subsequently isolated using magnet beads (EasySep™ Human Naïve CD4^+ T Cell Isolation Kit, Cambridge, Mass.). For regulatory T cell (Treg) differentiation assay, naïve CD4^+ T cells were cultured (1-10×10^4 cells) in CTS OpTmizer medium for 6 days and stimulated with 5 ng/ml TGF-β, 100 U/ml IL-2, and ImmunoCult™ Human […] T Cell Activator; Stemcell #10990) with/without our Compounds. Cell viability was determined using a viability dye (eBioscience Fixable Viability Dye eFluor 780: ThermoFisher 65-0865-14) at 1:500 dilution. The cells were gated for Treg, defined as Live, CD11c^−, CD14^−, CD19^−, CD8^−, CD4^+, CD3^+, CD25^+, FOXP3^+. Percent (%) Tregs were calculated as percentage of CD4^+, CD25^+, FOXP3^+ cells over total CD4^+ T cells. Statistical analysis was performed with GraphPad Prism Software Using One-Way ANOVA.

Mouse 3T3-L1 cells = experiment: Mouse adipocyte lipolysis assay; format: cell-based
Procedure: Once the cells became confluent, they were seeded into a tissue culture treated 96 well plate. […] After 14 days of differentiation, cells were treated with compounds of interest. After 24 hours post-treatment, the cell viability was assessed using CellTiter-Glo Luminescent Cell Viability Assay from Promega, and lipolysis was determined using Lipolysis Assay Kit from ZenBio.

Mouse myocyte = Mouse myocyte lipolysis assay; format: cell-based
Procedure: Cells were obtained from ATCC and cultured in Dulbecco's Modified Eagle's medium (DMEM) containing 20% fetal bovine serum and 1% penicillin/streptomycin at 37° C. in an incubator with 5% CO2. Once the cells became confluent, they were seeded into a tissue culture treated 96 well plate. The next day, the medium containing DMEM with 2% equine serum was used to start differentiation. Once cells were fully differentiated, they were treated with indicated compounds.

Male DIO mice = experiment: In vivo evaluation for glucose disposal and lipidemia in DIO mice (Example 11); conditions: 0.045% in HFD
Procedure: The DIO mice were prepared by feeding male C57BL/6 mice a high fat diet (HFD, Research Diets D12492) from 6-14 weeks of age. DIO mice were housed individually and maintained on the HFD through the duration of study. A twelve-hour light cycle was maintained with room temperature maintained at 22-25° C. All of the mice were acclimated to the facility for 5 days prior to starting the study.
Following 5 days of facility acclimation, DIO mice were randomized into 8 groups of 10 based on body weight and blood glucose for assignment to treatment, as shown in Table 9:
All treatments were administered admixed in HFD (Research Diets, New Brunswick N.J.) and were provided ad libitum for 30 days. Drinking water for group 7 was supplemented with 1, 3 Butanediol at 3% concentration.
Body weight was recorded at baseline and twice weekly thereafter. Feed and water intakes were recorded each Monday, Wednesday, and Friday.
Blood samples (<3 μL) were obtained one hour post dose by tail clip at baseline and weekly thereafter for measurement of fed blood glucose by StatStrip. Additional anti-coagulated blood samples (100 μl, EDTA di-potassium salt) were obtained by tail clip one hour post-dose at baseline, day 14 and day 30. Anti-coagulated samples were quick frozen and stored on dry ice.
Animals were subjected to a 16 hour fast for performance of an oral glucose tolerance test (OGTT) on day 28. Blood samples were obtained via tail clip just prior to (8 am) and 15, 30, 60, 90, and 120 minutes post-glucose load (2.0 g/kg, PO) for assay of whole blood glucose (StatStrip). Feed was returned following last sample.
Animals were terminated on day 30-31 using CO2 inhalation and induction of pneumothorax. Terminal blood samples were obtained by cardiac puncture. Whole blood was processed to serum and analyzed for serum cholesterol, triglycerides, high density lipoprotein (HDL), low density lipoprotein (LDL) and non-esterified fatty acids (NEFA) using AU480 clinical analyzer.
Organ weights (liver, spleen, subcutaneous fat, inguinal fat, abdominal fat, and epididymal fat) were recorded. Sections of each fat were frozen or fixed in 4% paraformaldehyde/PBS, pH 6.9; Fat samples were placed on dry ice. Fixed liver samples (4% paraformaldehyde) were sent to Premier Laboratories for H&E staining and scoring for steatosis, inflammation and fibrosis. Spleen samples were prepared in ice cold 5% bovine serum albumin (BSA) in PBS or 4% paraformaldehyde. Sections of brain, heart, lung, and small and large intestine were fixed in 10% formalin.
All data are represented as group mean±SEM. Data were analyzed using JMP (SAS software). All normalizations were calculated using terminal body weight.
Baseline differences among groups were identified using Tukey-Kramer Hsd<0.05. Treatment effects compared to control were determined using Oneway ANOVA (*, p<0.05) followed by Dunnett's test where appropriate.

[1] = tested on: Primary human subcutaneous adipocytes; experiment: Glucose uptake in human subcutaneous adipocytes, insulin sensitive model; format: cell-based; conditions: insulin sensitive model, compared to DMSO
Procedure: Primary human subcutaneous adipocytes (Zen Bio, Research Triangle Park, N.C.) were differentiated for two weeks prior to treatment. Cells were treated with indicated compounds diluted in (dimethyl-sulfoxide) DMSO in serum free medium for 24 hours in triplicate. After 24 hours, media was exchanged for assay buffer and the compounds were added again but in the presence of approximately 1 nM insulin. Glucose uptake was initiated with the addition of a cocktail containing 2-deoxyglucose and ^3H-2-deoxyglucose and allowed to incubate for 2 hours. Cells were washed, lysed and glucose uptake was measured as counts per well. As an assay control, 100 nM of insulin was used during the 2 hours of glucose uptake. […] Statistical changes in glucose uptake were determined by way ANOVA and compared to DMSO.

[2] = tested on: Primary human subcutaneous adipocytes; experiment: Glucose uptake in human subcutaneous adipocytes, insulin resistant model; format: cell-based; conditions: insulin-resistant like state, compared to DMSO
Procedure: As described above, primary human subcutaneous adipocytes were differentiated for two weeks prior to treatment. To induce an insulin resistant state, cells were treated in serum free Dulbecco's Modified Eagle Medium (high glucose) and […] for 24 hours. Cells were simultaneously treated with compounds diluted in DMSO for 24 hours. As described above, after 24 hours, media was exchanged for assay buffer and the compounds were added again but in the presence of approximately 1 nM insulin. Cells were washed and lysed after 2 hours and glucose uptake was measured. […] Statistical changes in glucose uptake were determined by way ANOVA and compared to DMSO.

**Q.** What does the source list for `CCC(=O)O` [Propionic acid]?
**A.** Cell viability % DMSO (naïve CD4+ T cells; 3 mM): = (90%≥ ≤110%: =); activity at 3000 µM (Mouse 3T3-L1 cells; Mus musculus, 3T3-L1, 3 mM, 24 hours, read-out: Lipolysis Free Fatty Acids % DMSO): ≤ 50%; activity at 3000 µM (Mouse myocyte; Mus musculus, 3 mM, read-out: Free glycerol % DMSO): 50 to 70%

**Q.** Which results are given for `CN(CCOc1ccc(CC2SC(=O)NC2=O)cc1)c1ccccn1` (stereo not shown) [Rosiglitazone, rosiglitazone, reference compound]?
**A.** Cell viability % DMSO (naïve CD4+ T cells; 10 uM): = (90%≥ ≤110%: =); Cell viability % DMSO (naïve CD4+ T cells; 100 uM): − (<90%: −); activity at 10 µM (naïve CD4+ T cells; Homo sapiens, CD4+ T, 144 h, 10 uM, read-out: Treg induction % DMSO): 90 to 110%; activity at 100 µM (naïve CD4+ T cells; Homo sapiens, CD4+ T, 144 h, 100 uM, read-out: Treg induction % DMSO): 90 to 110%; Abdominal fat (% BW) (Male DIO mice): *1.6 ± 0.1 % BW; Blood glucose (fed) change compared to baseline (Male DIO mice): −22.8±3.7%; Epididymal fat (% BW) (Male DIO mice): 4.1 ± 0.2 % BW; Inguinal fat (% BW) (Male DIO mice): 0.78 ± 0.05 % BW; Subcutaneous fat (% BW) (Male DIO mice): *7.6 ± 0.5 % BW; Fasting blood glucose levels (time 0 from OGTT) (Male DIO mice; 28 days, 16 hour fast): 91.3 ± 2.5 mg/dL; change in body weight from baseline (Male DIO mice; 30 days): 22.8±1.9%; Cholesterol (Male DIO mice; terminal (fed) serum): *121.5 ± 7.3 mg/dL; HDL (Male DIO mice; terminal (fed) serum): *60.5 ± 3.0 mg/dL; LDL (Male DIO mice; terminal (fed) serum): 8.0 ± 0.5 mg/dL; NEFA (Male DIO mice; terminal (fed) serum): *0.71 ± 0.04 mEq/L; Triglycerides (Male DIO mice; terminal (fed) serum): 91.3 ± 4.8 mg/dL; activity at 100 µM (Mouse 3T3-L1 cells; Mus musculus, 3T3-L1, 100 μM, 24 hours, read-out: Lipolysis Free Fatty Acids % DMSO): ≤ 50%; activity at 10 µM (Mouse myocyte; Mus musculus, 10 μM, read-out: Free glycerol % DMSO): 50 to 70%; activity at 100 µM (Mouse myocyte; Mus musculus, 100 μM, read-out: Free glycerol % DMSO): 50 to 70%

**Q.** Which results are given for `CC(O)CC(=O)[O-].[Na+]` (stereo not shown) [Sodium BHB]?
**A.** Cell viability % DMSO (naïve CD4+ T cells; 2 mM): = (90%≥ ≤110%: =); Treg induction % DMSO (naïve CD4+ T cells; 2 mM): + (110%> ≤130%: +); Cell viability % DMSO (naïve CD4+ T cells; 20 mM): − (<90%: −); Treg induction % DMSO (naïve CD4+ T cells; 20 mM): = (90%≥ ≤110%: =); Lipolysis Free Fatty Acids % DMSO (Mouse 3T3-L1 cells; 0.2 mM, 24 hours): ++ (50> ≤70%: ++); Lipolysis Glycerol % change (Mouse 3T3-L1 cells; 0.2 mM, 24 hours): + (70%> ≤90%: +); cell viability (CellTiter-Glo) (Mouse 3T3-L1 cells; 0.2 mM, 24 hours post-treatment): 86 % of DMSO control; Lipolysis Free Fatty Acids % DMSO (Mouse 3T3-L1 cells; 2 mM, 24 hours): ++ (50> ≤70%: ++); Lipolysis Glycerol % change (Mouse 3T3-L1 cells; 2 mM, 24 hours): ++ (50> ≤70%: ++); Lipolysis Free Fatty Acids % DMSO (Mouse 3T3-L1 cells; 20 mM, 24 hours): + (70%> ≤90%: +); Lipolysis Glycerol % change (Mouse 3T3-L1 cells; 20 mM, 24 hours): ++ (50> ≤70%: ++); Free glycerol % DMSO (Mouse myocyte; 0.2 mM): ++ (50> <70%: ++); Free glycerol % DMSO (Mouse myocyte; 2 mM): ++ (50> <70%: ++)

**Q.** Which insulin-mediated glucose uptake [1] does the source give for `C[C@@H](O)CC(=O)O` [(R)-BHB] here?
**A.** Its insulin-mediated glucose uptake is “significantly enhanced insulin-mediated glucose uptake”.

**Q.** And the insulin-mediated glucose uptake [2]?
**A.** The insulin-mediated glucose uptake was “significantly enhanced insulin-mediated glucose uptake”.
